From patent US6410034B1, “Dermal absorption-promoting agent” (Takasago International Corporation, priority 1998, dated 2002)
“Also recorded” adds a separate entry of the source.

Key:
[1] = isosorbide dinitrate in an aqueous suspension; Fragrance Journal, p34, 1996-4; cited from earlier work
[2] = combined together with indomethacin; YAKUZAIGAKU vol.56 No.3 (1996), DDS Vol. 12 No. 2 (1997); cited from earlier work
[3] = tested on: skin of Yucatan Micropig; assay: Dermal permeation test of indomethacin (IM), Example 1, water/ethanol samples, modified Franz diffusion cell; assay type: in vitro ADME; conditions: indomethacin 0.05 g, promoting agent 0.3 g, water 6.0 ml / ethanol 4.0 ml, 37° C., 30 to 48 hours
Description: (§1) A lipophilic agent indomethacin (IM) and a hydrophilic agent antipyrine (ANP) were used to compare the dermal absorption-promoting effect of p-menthane-3,8-diol (MDM: mixture of trans and cis forms) with those of l-menthol (LM) and 3-l-menthoxypropane-1,2-diol (MPD) together with a control.
(§2) According to the formulations shown in Table 1 (IM) and Table 2 (ANP), each of the three dermal absorption-promoting agents was employed, dissolved in ethanol and combined with water to prepare a sample. The samples thus prepared were stored at 37° C. until use.
(§3) A skin of Yucatan Micropig [5 month-old, male, NIPPON CHARLES RIVER (KK)] stored frozen at −80° C. was thawed at room temperature and, after removing an unwanted fat adhering to the skin, cut into pieces, each in about 2 cm square, which were subjected to a permeation test.
(§4) In the permeation test, a diffusion cell of a modified Franz type (valid surface area: 1.1 cm^2, receptor phase: 16 ml) containing a phosphate buffer, pH7.1, was provided on the receptor phase side, which was stirred with a star-head magnet at 600 rpm with keeping at 37° C. […] A receptor phase fractionated was subjected to a high pressure liquid chromatography (HPLC) to quantify the drug which had permeated. […]
(§5) IM and ANP were determined using an UV spectrophotometer model SPD-6A (SHIMADZU) at wavelengths of 254 nm and 245 nm, respectively. […]

[4] = tested on: skin of Yucatan Micropig; assay: Dermal permeation test of antipyrine (ANP), Example 1, water/ethanol samples, modified Franz diffusion cell; assay type: in vitro ADME; conditions: promoting agent dissolved in ethanol and combined with water, 37° C., 30 to 48 hours
Description: as §1, §2, §3, §4, §5

[5] = tested on: skin of Yucatan Micropig; assay: Dermal permeation test of IM, Example 2, water/1,3-butylene glycol samples; assay type: in vitro ADME; conditions: indomethacin 0.05 g, promoting agent 0.3 g, water 6.0 ml / 1,3-BG 4.0 ml
Method: as §3
(§6) In the permeation test, a diffusion cell of a modified Franz type (valid surface area: 1.1 cm^2, receptor phase: 16 ml) containing a phosphate buffer, pH7.1, was provided on the receptor phase side, which was stirred with a star-head magnet at 600 rpm with keeping at 37° C. On the donor side, 0.5 ml of a sample solution was contained and closed with a glass ball in order to prevent the evaporation of the sample solution. At a predetermined time, an aliquot was sampled and an equal volume of a buffer solution was supplemented. A receptor phase fractionated was subjected to a high pressure liquid chromatography (HPLC) to quantify the drug which had permeated. The permeation test was continued over a period of 30 to 48 hours.
A lipophilic agent indomethacin (IM) was used to compare the dermal absorption-promoting effect of p-menthane-3,8-diol (MDM: mixture of trans and cis forms) with those of l-menthol (LM) together with a control.

[6] = tested on: skin of Yucatan Micropig; assay: Dermal permeation test of IM, Example 3, water/1,3-butylene glycol samples, MDM, MPD and 1:1 combination; assay type: in vitro ADME; conditions: indomethacin 0.05 g, promoting agent 0.3 g total (combination 0.15 g + 0.15 g), water 6.0 ml / 1,3-BG 4.0 ml
Method: as §3
as §6, with “hours. […]” for “hours.”

[7] = tested on: mosquito; conditions: known from prior art; cited from earlier work

## CC12CCC(CC1)C(C)(C)O2 [1,8-cineol]
[1]
  promotion of dermal permeation of isosorbide dinitrate: promoted greatly

## CC(C)[C@@H]1CC[C@@H](C)C[C@H]1O [LM, l-menthol]
[1]
  promotion of dermal permeation of isosorbide dinitrate: promoted greatly
[2]
  promotion of dermal absorption of indomethacin: promotes the dermal absorption of indomethacin

## CC1CCC(C(C)C)C(OCC(O)CO)C1 (stereo not drawn) [MPD, 3-l-menthoxypropane-1,2-diol]
[2]
  promotion of dermal absorption of indomethacin: somewhat lower than that of l-menthol; also recorded: promotes the dermal absorption of indomethacin

## CC1CCC(C(C)(C)O)C(O)C1 (centres unmarked) [MDM, p-menthane-3,8-diol]
[3]
  dermal permeation-promoting ability (cumulative permeation of IM vs time, FIG. 1): not as high as that of LM but was higher than that of MPD; also recorded: promoted the dermal permeation of IM
[3]; listed as p-menthane-3,8-diol
  dermal permeation-promoting ability (cumulative permeation of IM vs time, FIG. 1): promoted the dermal permeation of both of lipophilic agent indomethacin and hydrophilic antipyrine
[4]
  dermal permeation-promoting ability (cumulative permeation of ANP vs time, FIG. 2): exhibited a dermal permeation-promoting ability, although the ability was not as high as that of LM and MPD; also recorded: promoted the dermal permeation of ANP
[4]; listed as p-menthane-3,8-diol
  dermal permeation-promoting ability (cumulative permeation of ANP vs time, FIG. 2): promoted the dermal permeation of both of lipophilic agent indomethacin and hydrophilic antipyrine
[5]
  dermal permeation-promoting ability (cumulative permeation of IM vs time, FIG. 3): exhibited a dermal permeation-promoting ability, although the ability was not as high as that of LM; also recorded: promoted the dermal permeation of IM
[6]
  dermal permeation-promoting ability (cumulative permeation of IM vs time, FIG. 4): higher than that of MPD
[7]
  repelling effect on a mosquito: known to have a repelling effect on a mosquito
